Data as given in patent US12545668B2, “Cyclic amine derivative as agent for promoting advillin function, and novel cyclic amine derivative and pharmaceutical use thereof” (Toray Industries, Inc., priority 2018, dated 2026).

Tested on: primary cultured cells of rat dorsal root ganglion
Experiment: Axon (neurite) extension in primary cultured cells of rat dorsal root ganglion with oxaliplatin-induced axonal injury
Assay type: cell-based
Conditions: 7 days
Excerpt: The effect of the cyclic amine derivative (I) or a pharmacologically acceptable salt thereof on neurite extension in primary cultured cells of rat dorsal root ganglion was examined.
Male SD rats (manufactured by Charles River Laboratories Japan, Inc.) of 4 to 7 weeks old were used. Each rat was anesthetized by intraperitoneally administering urethane. After confirming that the rat was anesthetized, the rat was rapidly euthanized by exsanguination from the abdominal aorta. After incision of the dorsal part, the spinal column was excised and cooled on ice. The dorsal side of the spinal column was cut off, and the spinal cord was removed from the ventral side of the spinal column to expose the dorsal root ganglia on the ventral side of the spinal column. The dorsal root ganglia (L3 to 6, right and left) were excised with tweezers, and dipped in ice-cold Leibovitz's L-15 medium (manufactured by Thermo Fisher Scientific), and the bundles of nerve fibers were removed under a stereoscopic microscope. The dorsal root ganglia from which the bundles of nerve fibers had been removed were made fine slits with ophthalmic scissors to be used as dorsal root ganglion pieces.
The dorsal root ganglion pieces were dipped in about 3 mL of a solution of collagenase A (manufactured by Roche Molecular Systems, Inc.), followed by incubation at 37° C. for 20 minutes. After the incubation, the resultant was centrifuged at 200×g at 25° C. for 5 minutes to remove a collagenase A solution corresponding to the supernatant. About 1 mL of a solution of trypsin was added thereto, followed by incubation at 37° C. for 5 minutes. Subsequently, about 3 mL of DMEM (manufactured by Thermo Fisher Scientific K.K.) containing 10% fetal bovine serum was added to the resultant, the resultant centrifuged at 200×g at room temperature for 5 minutes, and then the supernatant removed. […]

SMILES: CN(C)C1CCN(C(=O)C[C@H](O)c2nccn2C)CC1 [Example 7, (S)-1-(4-(dimethylamino)piperidin-1-yl)-3-hydroxy-3-(1-methyl-1H-imidazol-2-yl)propan-1-one]
- length of a neurite compared to the oxaliplatin alone treated group (100 μM with oxaliplatin 3 μM, FIG. 4, FIG. 5, p<0.025 Williams): significantly increased
- length of a neurite compared to the oxaliplatin alone treated group (10, 30 or 100 μM with oxaliplatin 3 μM, FIG. 5): found to increase
